How the values were obtained:
Assay in all cases: biochemical
Set-up in all cases: Eurofins recombinant human kinase profiling, remaining kinase activity as % of control, 10 uM ATP
Conditions in all cases: ATP 10 uM; read-out: %Ctrl@10 μM
ALK6(h) = target: T1, ALK6(h) (Homo sapiens, UniProt O00238)
T1 construct: gene BMPR1B
In short: (§1)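 Activity measured in a commercial panel of 401 recombinant human protein kinases run as a kinase profiling service.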

BTK(h) = BTK(h) (Homo sapiens, UniProt Q06187)
In short: as §1

CDK4/cyclinD3(h) = CDK4/cyclinD3(h) (Homo sapiens, UniProt P11802)
Chain of CDK4/cyclinD3(h) (P11802 whole entry): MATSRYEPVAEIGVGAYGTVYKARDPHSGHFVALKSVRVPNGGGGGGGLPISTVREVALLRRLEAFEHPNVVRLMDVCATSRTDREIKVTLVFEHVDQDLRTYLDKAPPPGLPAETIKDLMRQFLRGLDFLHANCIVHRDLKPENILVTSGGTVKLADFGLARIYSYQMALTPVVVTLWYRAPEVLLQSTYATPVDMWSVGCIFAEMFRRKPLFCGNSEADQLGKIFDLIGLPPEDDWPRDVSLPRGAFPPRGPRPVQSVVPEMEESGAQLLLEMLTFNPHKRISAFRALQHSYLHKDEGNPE
Chain of CDK4/cyclinD3(h) (P30281 whole entry partner): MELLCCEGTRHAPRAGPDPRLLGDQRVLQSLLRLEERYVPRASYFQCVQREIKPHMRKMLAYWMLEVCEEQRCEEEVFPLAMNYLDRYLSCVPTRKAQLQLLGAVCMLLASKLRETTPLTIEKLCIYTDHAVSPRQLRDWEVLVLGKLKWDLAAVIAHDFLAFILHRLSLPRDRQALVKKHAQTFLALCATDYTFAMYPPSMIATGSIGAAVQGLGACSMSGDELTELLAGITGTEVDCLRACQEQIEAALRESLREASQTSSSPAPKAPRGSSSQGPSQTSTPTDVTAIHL
In short: as §1

Hck(h) activated = Hck(h) activated (Homo sapiens, UniProt P08631)
In short: as §1

LIMK2(h) = LIMK2(h) (Homo sapiens, UniProt P53671)
In short: as §1

PDGFRα(h) = target: T2, PDGFRα(h) (Homo sapiens, UniProt P16234)
T2 construct: gene PDGFRA
In short: as §1

PDGFRβ(h) = target: T3, PDGFRβ(h) (Homo sapiens, UniProt P09619)
T3 construct: gene PDGFRB
T3 sequence (P09619 whole entry): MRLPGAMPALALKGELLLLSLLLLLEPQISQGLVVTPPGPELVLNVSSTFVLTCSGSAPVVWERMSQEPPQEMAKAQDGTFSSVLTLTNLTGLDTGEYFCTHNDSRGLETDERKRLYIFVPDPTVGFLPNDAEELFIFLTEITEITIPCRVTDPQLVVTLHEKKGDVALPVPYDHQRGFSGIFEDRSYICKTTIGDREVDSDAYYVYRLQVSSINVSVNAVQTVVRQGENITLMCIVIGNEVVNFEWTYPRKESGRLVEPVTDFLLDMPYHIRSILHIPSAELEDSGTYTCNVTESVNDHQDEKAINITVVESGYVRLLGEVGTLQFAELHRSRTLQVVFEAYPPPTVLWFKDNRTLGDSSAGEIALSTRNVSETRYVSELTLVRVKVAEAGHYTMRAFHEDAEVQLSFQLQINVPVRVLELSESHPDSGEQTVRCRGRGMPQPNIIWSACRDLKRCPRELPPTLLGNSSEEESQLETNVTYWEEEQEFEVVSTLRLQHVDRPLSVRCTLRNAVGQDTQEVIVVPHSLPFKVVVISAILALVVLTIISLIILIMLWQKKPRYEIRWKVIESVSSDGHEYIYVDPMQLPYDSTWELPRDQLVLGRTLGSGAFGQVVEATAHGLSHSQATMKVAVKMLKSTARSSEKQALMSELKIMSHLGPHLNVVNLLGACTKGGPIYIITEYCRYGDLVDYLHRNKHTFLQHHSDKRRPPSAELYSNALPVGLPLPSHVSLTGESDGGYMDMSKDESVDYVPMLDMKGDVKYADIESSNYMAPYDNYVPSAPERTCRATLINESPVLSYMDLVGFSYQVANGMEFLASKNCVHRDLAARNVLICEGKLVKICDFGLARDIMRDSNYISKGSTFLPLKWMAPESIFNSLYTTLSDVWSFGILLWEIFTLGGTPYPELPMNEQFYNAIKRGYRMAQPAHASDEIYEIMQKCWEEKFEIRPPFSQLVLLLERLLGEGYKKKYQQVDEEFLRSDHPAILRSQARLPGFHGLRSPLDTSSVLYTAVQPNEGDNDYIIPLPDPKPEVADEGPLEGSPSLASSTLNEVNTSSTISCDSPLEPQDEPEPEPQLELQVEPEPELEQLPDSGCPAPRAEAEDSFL
In short: as §1

PKCε(h) = target: T4, PKCε(h) (Homo sapiens, UniProt Q02156)
T4 construct: gene PRKCE
In short: as §1

PKCθ(h) = target: T5, PKCθ(h) (Homo sapiens, UniProt Q04759)
T5 construct: gene PRKCQ
T5 sequence (Q04759 whole entry): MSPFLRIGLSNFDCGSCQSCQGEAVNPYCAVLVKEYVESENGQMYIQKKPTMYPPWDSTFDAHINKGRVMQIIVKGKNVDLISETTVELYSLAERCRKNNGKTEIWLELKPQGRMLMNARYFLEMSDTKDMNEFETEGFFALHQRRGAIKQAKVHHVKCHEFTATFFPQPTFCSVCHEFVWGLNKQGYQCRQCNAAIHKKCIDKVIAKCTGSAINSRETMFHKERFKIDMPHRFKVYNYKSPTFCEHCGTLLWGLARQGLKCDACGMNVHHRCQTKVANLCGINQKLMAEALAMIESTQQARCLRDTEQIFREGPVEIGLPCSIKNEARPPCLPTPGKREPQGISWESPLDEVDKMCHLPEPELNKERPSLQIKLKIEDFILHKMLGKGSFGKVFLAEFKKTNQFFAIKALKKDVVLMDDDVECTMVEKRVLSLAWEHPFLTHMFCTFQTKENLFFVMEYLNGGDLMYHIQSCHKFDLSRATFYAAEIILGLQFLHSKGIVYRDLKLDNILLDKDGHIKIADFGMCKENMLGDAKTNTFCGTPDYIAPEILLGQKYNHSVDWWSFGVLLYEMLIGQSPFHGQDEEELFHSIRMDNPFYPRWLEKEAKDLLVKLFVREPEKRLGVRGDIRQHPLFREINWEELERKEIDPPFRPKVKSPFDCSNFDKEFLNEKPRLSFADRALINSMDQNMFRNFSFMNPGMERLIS
In short: as §1

PKCι(h) = target: T6, PKCι(h) (Homo sapiens, UniProt P41743)
T6 construct: gene PRKCI
T6 sequence (P41743 whole entry): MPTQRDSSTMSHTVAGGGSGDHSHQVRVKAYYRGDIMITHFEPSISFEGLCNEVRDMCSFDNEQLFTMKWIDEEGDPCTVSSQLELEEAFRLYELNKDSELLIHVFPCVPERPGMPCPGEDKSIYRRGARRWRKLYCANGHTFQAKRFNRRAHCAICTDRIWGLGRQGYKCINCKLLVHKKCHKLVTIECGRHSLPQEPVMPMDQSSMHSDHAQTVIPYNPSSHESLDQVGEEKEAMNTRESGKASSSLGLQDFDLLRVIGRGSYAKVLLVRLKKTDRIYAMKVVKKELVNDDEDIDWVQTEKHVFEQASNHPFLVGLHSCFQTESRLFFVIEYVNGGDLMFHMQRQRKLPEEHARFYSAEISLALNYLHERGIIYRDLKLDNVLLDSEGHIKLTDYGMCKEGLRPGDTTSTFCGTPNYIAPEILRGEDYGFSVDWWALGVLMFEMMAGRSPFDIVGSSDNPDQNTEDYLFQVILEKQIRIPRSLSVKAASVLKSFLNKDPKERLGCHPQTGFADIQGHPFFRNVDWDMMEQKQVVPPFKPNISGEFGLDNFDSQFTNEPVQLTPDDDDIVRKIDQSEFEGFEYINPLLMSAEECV
In short: as §1

Pim-3(h) = target: T7, Pim-3(h) (Homo sapiens, UniProt Q86V86)
T7 construct: gene PIM3
In short: as §1

Plk1(h) = Plk1(h) (Homo sapiens, UniProt P53350)
Chain of Plk1(h) (P53350 whole entry): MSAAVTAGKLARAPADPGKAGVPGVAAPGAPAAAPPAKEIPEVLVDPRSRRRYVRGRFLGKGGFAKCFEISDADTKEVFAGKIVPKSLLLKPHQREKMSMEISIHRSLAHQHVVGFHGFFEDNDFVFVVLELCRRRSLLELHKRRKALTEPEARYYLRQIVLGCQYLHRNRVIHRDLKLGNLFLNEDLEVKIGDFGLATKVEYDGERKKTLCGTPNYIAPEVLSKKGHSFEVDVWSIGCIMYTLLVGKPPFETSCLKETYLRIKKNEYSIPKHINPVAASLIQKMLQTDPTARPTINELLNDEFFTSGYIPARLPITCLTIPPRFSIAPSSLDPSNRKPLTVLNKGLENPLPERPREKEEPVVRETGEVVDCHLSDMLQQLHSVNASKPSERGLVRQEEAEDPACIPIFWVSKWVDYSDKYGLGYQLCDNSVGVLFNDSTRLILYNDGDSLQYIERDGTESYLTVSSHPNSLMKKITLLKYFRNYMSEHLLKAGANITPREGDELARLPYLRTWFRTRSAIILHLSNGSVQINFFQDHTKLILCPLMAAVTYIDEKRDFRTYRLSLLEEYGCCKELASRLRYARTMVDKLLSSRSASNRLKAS
In short: as §1

ROCK-II(h) = target: T8, ROCK-II(h) (Homo sapiens, UniProt O75116)
T8 construct: gene ROCK2
In short: as §1

Rse(h) = target: T9, Rse(h) (Homo sapiens, UniProt Q06418)
T9 construct: gene TYRO3
In short: as §1

Rsk3(h) = target: T10, Rsk3(h) (Homo sapiens, UniProt Q15349)
T10 construct: gene RPS6KA2
In short: as §1

Rsk4(h) = target: T11, Rsk4(h) (Homo sapiens, UniProt Q9UK32)
T11 construct: gene RPS6KA6
In short: as §1

Snk(h) = target: T12, Snk(h) (Homo sapiens, UniProt Q9NYY3)
T12 construct: gene PLK2
In short: as §1

TAK1(h) = target: T13, TAK1(h) (Homo sapiens, UniProt O43318)
T13 construct: gene MAP3K7
T13 sequence (O43318 whole entry): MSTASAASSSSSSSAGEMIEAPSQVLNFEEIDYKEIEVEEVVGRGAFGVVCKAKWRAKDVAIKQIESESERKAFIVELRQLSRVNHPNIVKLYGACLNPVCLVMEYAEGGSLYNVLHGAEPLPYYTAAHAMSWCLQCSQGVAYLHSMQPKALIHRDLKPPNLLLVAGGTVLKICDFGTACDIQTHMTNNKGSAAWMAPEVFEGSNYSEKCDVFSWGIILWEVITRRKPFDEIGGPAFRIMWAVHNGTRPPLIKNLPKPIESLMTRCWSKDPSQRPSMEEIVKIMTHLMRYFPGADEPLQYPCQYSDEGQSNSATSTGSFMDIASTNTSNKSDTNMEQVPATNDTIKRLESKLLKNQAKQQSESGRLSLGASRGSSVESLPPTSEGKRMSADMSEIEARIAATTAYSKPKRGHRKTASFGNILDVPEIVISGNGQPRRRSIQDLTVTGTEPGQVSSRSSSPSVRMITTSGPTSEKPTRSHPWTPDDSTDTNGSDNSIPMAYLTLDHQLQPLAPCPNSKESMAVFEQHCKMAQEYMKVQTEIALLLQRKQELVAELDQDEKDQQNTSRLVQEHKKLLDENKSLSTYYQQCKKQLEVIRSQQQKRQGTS
In short: as §1

TGFBR2(h) = TGFBR2(h) (Homo sapiens, UniProt P37173)
In short: as §1

TRB2(h) = target: T14, TRB2(h) (Homo sapiens, UniProt Q92519)
T14 construct: gene TRIB2
In short: as §1

ULK2(h) = ULK2(h) (Homo sapiens, UniProt Q8IYT8)
In short: as §1

WNK4(h) = WNK4(h) (Homo sapiens, UniProt Q96J92)
In short: as §1

Wee1B(h) = target: T15, Wee1B(h) (Homo sapiens, UniProt P0C1S8)
T15 construct: gene WEE2
T15 sequence (P0C1S8 whole entry): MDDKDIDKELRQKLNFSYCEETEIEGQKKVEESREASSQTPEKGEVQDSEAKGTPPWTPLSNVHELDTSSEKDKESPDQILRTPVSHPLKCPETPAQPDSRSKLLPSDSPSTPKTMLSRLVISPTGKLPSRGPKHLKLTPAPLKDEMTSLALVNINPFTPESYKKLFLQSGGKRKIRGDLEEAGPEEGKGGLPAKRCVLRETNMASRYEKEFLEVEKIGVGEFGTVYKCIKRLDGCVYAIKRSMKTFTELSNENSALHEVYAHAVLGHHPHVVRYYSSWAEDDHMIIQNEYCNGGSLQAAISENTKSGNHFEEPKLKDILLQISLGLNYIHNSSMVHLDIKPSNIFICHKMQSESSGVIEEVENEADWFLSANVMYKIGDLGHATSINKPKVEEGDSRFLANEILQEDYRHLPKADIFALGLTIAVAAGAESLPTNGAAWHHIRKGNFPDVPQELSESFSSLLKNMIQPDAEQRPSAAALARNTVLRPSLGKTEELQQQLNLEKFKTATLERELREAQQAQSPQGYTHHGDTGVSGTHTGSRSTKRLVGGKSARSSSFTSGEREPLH
In short: as §1

With C1=C(c2nc(-c3cnn(C4CCNCC4)c3)cn3cc(-c4ccccc4)nc23)CCOC1 [YL-939] the remaining activity at 10 µM (ALK6(h)) was 105%, the remaining activity at 10 µM (BTK(h)) was 83% and the remaining activity at 10 µM (CDK4/cyclinD3(h)) was 80%. The remaining activity at 10 µM (Hck(h) activated) was 105%, the remaining activity at 10 µM (LIMK2(h)) was 85% and the remaining activity at 10 µM (PDGFRα(h)) was 76%. The remaining activity at 10 µM (PDGFRβ(h)) was 113%, the remaining activity at 10 µM (PKCε(h)) was 95% and the remaining activity at 10 µM (PKCθ(h)) was 93%. The remaining activity at 10 µM (PKCι(h)) was 85%, the remaining activity at 10 µM (Pim-3(h)) was 103% and the remaining activity at 10 µM (Plk1(h)) was 84%. It also gave a remaining activity at 10 µM (ROCK-II(h)) of 89%, a remaining activity at 10 µM (Rse(h)) of 98% and a remaining activity at 10 µM (Rsk3(h)) of 96%. The remaining activity at 10 µM (Rsk4(h)) was 73%, the remaining activity at 10 µM (Snk(h)) was 112% and the remaining activity at 10 µM (TAK1(h)) was 77%. It also gave a remaining activity at 10 µM (TGFBR2(h)) of 97%, a remaining activity at 10 µM (TRB2(h)) of 59% and a remaining activity at 10 µM (ULK2(h)) of 77%. The remaining activity at 10 µM (WNK4(h)) was 102% and the remaining activity at 10 µM (Wee1B(h)) was 92%.
